Experimental findings from ChEMBL document CHEMBL3739410, “The natural product brartemicin is a high affinity ligand for the carbohydrate-recognition domain of the macrophage receptor mincle” (Medchemcomm, 2015) are described below.

The species entered for this experiment is Bos taurus. In words: Displacement of radioiodinated Man31-bovine serum albumin from biotin-tagged bovine mincle CRD after 2 hr by scintillation counting analysis relative to alpha,alpha-trehalose.

As for `Cc1cc(O)cc(O)c1C(=O)OC[C@H]1O[C@H](O[C@H]2O[C@H](COC(=O)c3c(C)cc(O)cc3O)[C@@H](O)[C@H](O)[C@H]2O)[C@H](O)[C@@H](O)[C@@H]1O`, the Ratio Ki was 290.
